Data published in patent publication US11634395B2, “Sulfonamide compound or salt thereof” (Taiho Pharmaceutical Co., Ltd., priority 2016, dated 2023).
Read-outs that look alike come from different tables or passages of the source.

Target: Human RNR (human M1 subunit and human M2 subunit) (Homo sapiens (Human), UniProt P23921)
Assay: Human RNR inhibition effect (formation of dCDP from CDP, HPLC)
Assay type: biochemical
Conditions: 10 μM CDP, 37° C. for 30 minutes, read-out: RNR Enzyme inhibitory activity IC50
Protocol: The inhibitory activity against the ribonucleotide reduction reaction (hereinafter referred to as RNR reaction) of the test compound was determined by measuring the formation of deoxycytidine diphosphate (hereinafter referred to as dCDP) from cytidine diphosphate (hereinafter referred to as CDP) by the following method.
Human M1 subunit and human M2 subunit (mutant lacking amino terminal 59 amino acids), which are fused a histidine tag at the amino terminus, are overexpressed in Escherichia coli and are solubilized after collection, and histidine tagged human M1 and M2 proteins were purified on a nickel chelate column.
First, test compounds were serially diluted with DMSO. Next, human M1 protein and human M2 protein were added to an aqueous albumin solution derived from 0.02% fetal bovine serum, a DMSO solution of the compound of the present invention or the control DMSO solution (final concentration of DMSO was 1%) was added, and the mixture was allowed to stand for 20 minutes. Thereafter, the reaction buffer [50 mM HEPES buffer (pH 7.2) at the final concentration, 4 mM magnesium acetate at the final concentration, 100 mM potassium chloride at the final concentration, 6 mM dithiothreitol at the final concentration, 2 mM adenosine triphosphate at the final concentration, 0.24 mM nicotinamide adenine dinucleotide phosphate at final concentration] and 10 μM CDP at the final concentration were added and incubated at 37° C. for 30 minutes to perform RNR reaction. Immediately after the reaction, the reaction was stopped by heating at 100° C. for 15 minutes, followed by centrifugation at 10,000 rpm for 10 minutes. After the centrifugation, a portion (5 μL) of the resulting supernatant was analyzed with a high performance liquid chromatography (Shimadzu Corporation, Prominence) using Shim-pack XR-ODS (manufactured by Shimadzu GLC Co., 3.0×100 mm).

Sequence of Human RNR (human M1 subunit and human M2 subunit) (P23921 whole entry): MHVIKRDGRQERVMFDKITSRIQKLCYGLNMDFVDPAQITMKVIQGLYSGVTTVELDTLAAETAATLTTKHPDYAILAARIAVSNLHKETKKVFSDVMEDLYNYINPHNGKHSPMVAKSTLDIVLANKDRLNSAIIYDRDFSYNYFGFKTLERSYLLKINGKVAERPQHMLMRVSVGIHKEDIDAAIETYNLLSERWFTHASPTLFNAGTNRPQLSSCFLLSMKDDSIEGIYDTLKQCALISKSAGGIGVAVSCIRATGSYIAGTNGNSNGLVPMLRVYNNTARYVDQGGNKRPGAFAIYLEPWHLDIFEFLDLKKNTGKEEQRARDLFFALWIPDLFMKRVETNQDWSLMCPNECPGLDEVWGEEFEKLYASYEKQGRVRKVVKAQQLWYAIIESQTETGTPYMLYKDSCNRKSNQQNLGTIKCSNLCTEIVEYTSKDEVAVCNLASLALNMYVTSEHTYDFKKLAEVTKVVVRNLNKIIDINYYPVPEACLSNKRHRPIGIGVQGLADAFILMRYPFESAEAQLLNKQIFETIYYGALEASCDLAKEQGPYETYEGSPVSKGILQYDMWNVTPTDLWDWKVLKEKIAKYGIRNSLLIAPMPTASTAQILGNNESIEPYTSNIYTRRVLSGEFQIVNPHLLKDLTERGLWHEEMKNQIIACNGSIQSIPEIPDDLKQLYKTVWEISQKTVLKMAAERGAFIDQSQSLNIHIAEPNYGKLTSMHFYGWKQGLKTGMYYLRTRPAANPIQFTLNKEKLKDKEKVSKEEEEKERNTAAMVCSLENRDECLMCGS

Row | SMILES | IC50 (human M1 and M2 proteins) | IC50 (human M1 and M2 subunits, formation of dCDP from CDP)
1 | Cc1ccc(F)c([C@@H](C)[C@H](NS(=O)(=O)c2ccc(Cl)c3c2OCCC3(C)O)c2n[nH]c(=O)o2)c1C (single isomer, unassigned) [Example 207A] | 130 nM | –
2 | COc1c(S(=O)(=O)N[C@H](c2n[nH]c(=O)o2)[C@H](C)c2c(F)ccc(C)c2C)ccc(Cl)c1C(C)O (single isomer, unassigned) [Example 208A] | 100 nM | –
3 | Cc1c(Cl)ccc(F)c1[C@@H](C)[C@H](NS(=O)(=O)c1ccc(Cl)c2c1OCCC2(C)O)c1n[nH]c(=O)o1 (single isomer, unassigned) [Example 209A] | 100 nM | –
4 | Cc1c(Cl)ccc(F)c1[C@@H](C)[C@H](NS(=O)(=O)c1ccc(Cl)c2c1OCCC2(C)O)c1n[nH]c(=O)o1 (single isomer, unassigned) [Example 209B] | 180 nM | –
5 | Cc1ccc(F)c([C@@H](C)[C@H](NS(=O)(=O)c2ccc(F)c3c2OCCC3(C)O)c2n[nH]c(=O)o2)c1C (single isomer, unassigned) [Example 224B] | 100 nM | –
6 | [2H]C([2H])([2H])C1(O)CCOc2c(S(=O)(=O)N[C@H](c3n[nH]c(=O)o3)[C@H](C)c3c(F)ccc(Cl)c3C)ccc(Cl)c21 (single isomer, unassigned) [Example 228B] | 140 nM | –
7 | Cc1c(Cl)ccc(F)c1[C@@H](C)[C@H](NS(=O)(=O)c1ccc(F)c2c1OCCC2(C)O)c1n[nH]c(=O)o1 (single isomer, unassigned) [Example 229B] | 110 nM | –
8 | Cc1ccc(F)c([C@@H](C)[C@H](NS(=O)(=O)c2ccc(F)c3c2OCCC3O)c2n[nH]c(=O)o2)c1C (single isomer, unassigned) [Example 230A] | 120 nM | –
9 | C[C@H](c1c(F)ccc2ccccc12)[C@H](NS(=O)(=O)c1ccc(Cl)c2c1OCCC2O)c1n[nH]c(=O)o1 (single isomer, unassigned) [Example 234A] | 310 nM | –
10 | Cc1ccc(F)c([C@@H](C)[C@H](NS(=O)(=O)c2cccc3c2OC(C)(C)CC3O)c2n[nH]c(=O)o2)c1C (single isomer, unassigned) [Example 237A] | 290 nM | –
11 | CCc1ccc(F)c([C@@H](C)[C@H](NS(=O)(=O)c2ccc(Cl)c3c2OCCC3O)c2n[nH]c(=O)o2)c1C (single isomer, unassigned) [Example 239A] | 200 nM | –
12 | Cc1c(Br)ccc(F)c1[C@@H](C)[C@H](NS(=O)(=O)c1ccc(Cl)c2c1OCCC2O)c1n[nH]c(=O)o1 (single isomer, unassigned) [Example 243B] | 100 nM | –
13 | Cc1ccc(F)c([C@@H](C)[C@H](NS(=O)(=O)c2ccc(C(F)(F)F)c3c2OCCC3O)c2n[nH]c(=O)o2)c1C (single isomer, unassigned) [Example 244B] | 220 nM | –
14 | Cc1c(Cl)ccc(F)c1[C@@H](C)[C@H](NS(=O)(=O)c1ccc(Cl)c2c1OCCC2(C)N)c1n[nH]c(=O)o1 (single isomer, unassigned) [Example 330A] | 120 nM | –
15 | Cc1c(Cl)ccc(F)c1[C@@H](C)[C@H](NS(=O)(=O)c1ccc(Cl)c2c1OCCC2(C)N)c1n[nH]c(=O)o1 (single isomer, unassigned) [Example 330B] | 460 nM | –
16 | C=C(c1c(F)ccc(C)c1C)[C@H](NS(=O)(=O)c1ccc(Cl)cc1OC)c1n[nH]c(=O)o1 [Example 185, (S)-4-chloro-N-(2-(6-fluoro-2,3-dimethylphenyl)-1-(5-oxo-4,5-dihydro-1,3,4-oxadiazol-2-yl)allyl)-2-methoxybenzenesulfonamide] | – | 600 nM
17 | Cc1c(Cl)ccc(F)c1[C@@H](C)[C@H](NS(=O)(=O)c1ccc(Cl)c2c1OCCC2O)c1n[nH]c(=O)o1 (stereo partly drawn) [Example 238A, 5-chloro-N-((1S,2R)-2-(3-chloro-6-fluoro-2-methylphenyl)-1-(5-oxo-4,5-dihydro-1,3,4-oxadiazol-2-yl)propyl)-4-hydroxychroman-8-sulfonamide] | 110 nM | –

The remaining lines, values ahead:

Row | IC50 (human M1 and M2 proteins) | IC50 (human M1 and M2 subunits, formation of dCDP from CDP) | SMILES
18 | 30 nM | – | [2H]C([2H])([2H])C1(O)CCOc2c(S(=O)(=O)N[C@H](c3n[nH]c(=O)o3)[C@H](C)c3c(F)ccc(C)c3C)ccc(Cl)c21 (single isomer, unassigned) [Example 200A]
19 | 80 nM | – | [2H]C([2H])([2H])C1(O)CCOc2c(S(=O)(=O)N[C@H](c3n[nH]c(=O)o3)[C@H](C)c3c(F)ccc(C)c3C)ccc(Cl)c21 (single isomer, unassigned) [Example 200B]
20 | 90 nM | – | Cc1ccc(F)c([C@@H](C)[C@H](NS(=O)(=O)c2ccc(Cl)c3c2OCCC3(C)O)c2n[nH]c(=O)o2)c1C (single isomer, unassigned) [Example 207B]
21 | 60 nM | – | COc1c(S(=O)(=O)N[C@H](c2n[nH]c(=O)o2)[C@H](C)c2c(F)ccc(C)c2C)ccc(Cl)c1C(C)O (single isomer, unassigned) [Example 208B]
22 | 60 nM | – | Cc1ccc(F)c([C@@H](C)[C@H](NS(=O)(=O)c2ccc(Cl)c3c2OCCC3(O)C(F)(F)F)c2n[nH]c(=O)o2)c1C (single isomer, unassigned) [Example 220A]
23 | 80 nM | – | Cc1ccc(F)c([C@@H](C)[C@H](NS(=O)(=O)c2ccc(Cl)c3c2OCCC3(O)C(F)(F)F)c2n[nH]c(=O)o2)c1C (single isomer, unassigned) [Example 220B]
24 | 80 nM | – | Cc1c(Br)ccc(F)c1[C@@H](C)[C@H](NS(=O)(=O)c1ccc(Cl)c2c1OCCC2(C)O)c1n[nH]c(=O)o1 (single isomer, unassigned) [Example 222A]
25 | 60 nM | – | Cc1c(Br)ccc(F)c1[C@@H](C)[C@H](NS(=O)(=O)c1ccc(Cl)c2c1OCCC2(C)O)c1n[nH]c(=O)o1 (single isomer, unassigned) [Example 222B]
26 | 50 nM | – | [2H]C([2H])([2H])C1(O)CCOc2c(S(=O)(=O)N[C@H](c3n[nH]c(=O)o3)[C@H](C)c3c(F)ccc(Br)c3C)ccc(Cl)c21 (single isomer, unassigned) [Example 226A]
27 | 70 nM | – | [2H]C([2H])([2H])C1(O)CCOc2c(S(=O)(=O)N[C@H](c3n[nH]c(=O)o3)[C@H](C)c3c(F)ccc(Br)c3C)ccc(Cl)c21 (single isomer, unassigned) [Example 226B]
28 | 50 nM | – | Cc1c(Br)ccc(F)c1[C@@H](C)[C@H](NS(=O)(=O)c1ccc(F)c2c1OCCC2(C)O)c1n[nH]c(=O)o1 (single isomer, unassigned) [Example 227A]
29 | 90 nM | – | Cc1c(Br)ccc(F)c1[C@@H](C)[C@H](NS(=O)(=O)c1ccc(F)c2c1OCCC2(C)O)c1n[nH]c(=O)o1 (single isomer, unassigned) [Example 227B]
30 | 80 nM | – | [2H]C([2H])([2H])C1(O)CCOc2c(S(=O)(=O)N[C@H](c3n[nH]c(=O)o3)[C@H](C)c3c(F)ccc(Cl)c3C)ccc(Cl)c21 (single isomer, unassigned) [Example 228A]
31 | 60 nM | – | Cc1c(Cl)ccc(F)c1[C@@H](C)[C@H](NS(=O)(=O)c1ccc(F)c2c1OCCC2(C)O)c1n[nH]c(=O)o1 (single isomer, unassigned) [Example 229A]
32 | 50 nM | – | Cc1ccc(F)c([C@@H](C)[C@H](NS(=O)(=O)c2ccc(F)c3c2OCCC3O)c2n[nH]c(=O)o2)c1C (single isomer, unassigned) [Example 230B]
33 | 80 nM | – | Cc1ccc(F)c([C@@H](C)[C@H](NS(=O)(=O)c2ccc(Cl)c3c2OCCC3O)c2n[nH]c(=O)o2)c1C (single isomer, unassigned) [Example 235A]
34 | 70 nM | – | Cc1ccc(F)c([C@@H](C)[C@H](NS(=O)(=O)c2ccc(Cl)c3c2OCCC3O)c2n[nH]c(=O)o2)c1C (single isomer, unassigned) [Example 235B]
35 | 70 nM | – | Cc1c(Br)ccc(F)c1[C@@H](C)[C@H](NS(=O)(=O)c1ccc(Cl)c2c1OCCC2O)c1n[nH]c(=O)o1 (single isomer, unassigned) [Example 243A]
36 | 90 nM | – | Cc1ccc(F)c([C@@H](C)[C@H](NS(=O)(=O)c2ccc(C(F)(F)F)c3c2OCCC3O)c2n[nH]c(=O)o2)c1C (single isomer, unassigned) [Example 244A]
